Source: patent publication US20060205772A1, “Amide derivatives and their use as inhibitors of 11-beta-hydroxysteroid dehydrogenase type I” (priority 2003, published 2006)

How the values were obtained:
[1] = target: T1, human recombinant 11β-HSD1 (Homo sapiens, UniProt P28845); test: in vitro inhibition of human recombinant 11β-HSD1 (Pichia pastoris microsomes, [3H]cortisone to [3H]cortisol); assay type: biochemical; settings: recombinant human 11β-HSD1 microsomes, 500 nM cortisone mixture, NADPH, 90 min at 37° C.
T1 construct: made in house; host or cells: Pichia pastoris (microsomal fraction)
Protocol: The in vitro inhibition of human recombinant 11β-HSD1 is determined as follows:
Recombinant human 11β-HSD1 is expressed in yeast Pichia pastoris. Cultures are grown at 30° C. for 3 days in the presence of methanol to induce enzyme expression. The microsomal fraction overexpressing 11β-HSD1 is prepared from the cell homogenate and used as the enzyme source for primary screening. A test compound at the desired concentration is preincubated for 10 min at RT with 3 μg of the microsomal protein in 50 mM sodium phosphate, pH 7.5, in a total volume of 80 μL. The enzyme reaction is initiated by adding 20 μL of a mixture containing 5 mM NADPH, 500 nM cortisone, and 80,000 dpm of [^3H]cortisone in the same buffer and is terminated by ethyl acetate after incubation for 90 min at 37° C. The production of [^3H]cortisol is quantitated upon separation from [^3H]cortisone by a C18 column on HPLC equipped with a radioactivity detector. Glycerrhetinic acid, a known inhibitor of 11β-HSD1, is used as a standard.

human 11β-HSD2 = target: T2, human 11β-HSD2 (Homo sapiens, UniProt P80365); test: in vitro inhibition of human 11β-HSD2 (SW-620 cell lysates, [3H]cortisol to [3H]cortisone); assay type: biochemical
T2 construct: using lysates of SW-620 cells as the enzyme source; host or cells: SW-620 human colon carcinoma cells (lysate)
T2 sequence (P80365 1-405): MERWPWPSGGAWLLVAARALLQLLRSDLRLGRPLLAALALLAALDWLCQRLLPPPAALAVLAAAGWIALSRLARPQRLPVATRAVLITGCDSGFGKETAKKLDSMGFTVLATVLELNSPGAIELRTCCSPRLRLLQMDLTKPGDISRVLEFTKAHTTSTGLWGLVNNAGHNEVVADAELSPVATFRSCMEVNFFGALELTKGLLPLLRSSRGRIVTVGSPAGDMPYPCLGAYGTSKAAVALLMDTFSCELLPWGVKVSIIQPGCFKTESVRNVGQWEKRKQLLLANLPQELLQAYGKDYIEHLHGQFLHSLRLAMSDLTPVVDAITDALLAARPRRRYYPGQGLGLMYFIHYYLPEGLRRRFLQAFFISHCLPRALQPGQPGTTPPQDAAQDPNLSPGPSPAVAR
Protocol: The in vitro inhibition of human 11β-HSD2 is determined as follows:
The SW-620 human colon carcinoma cell line is obtained from the American Type Culture Collection (ATCC). Cells are plated at a density of 8-10×10^4 cells/cm^2 in DMEM/F12 containing 5% BCS, 100 U/mL penicillin, 100 μg/mL streptomycin and […] amphotericin B. Cultures are grown to 80-90% confluence in a humidified, atmosphere of 5% CO2 at 37° C. The medium is changed to serum-free, phenol red-free DMEM/F12 at 24 h before harvesting the cells.
After 24 h in serum-free medium, cultured SW-620 cells are rinsed and scraped in Kreb's-Ringer buffer, pH 7.4, containing 1 mM EDTA, 2 μg/mL aprotinin, 10 μM leupeptin and 1 μM pepstatin. After sonication (30 seconds) and low speed centrifugation (2,000 rpm, 5 min) to remove cellular debris, the supernatant is collected and used to determine enzyme activity and protein concentration (BCA, Pierce, Rockford, Ill.).
Dehydrogenase activity is quantified by measuring the conversion of [^3H]cortisol to [^3H]cortisone using lysates of SW-620 cells as the enzyme source. The assay is performed in tubes containing Kreb's-Ringer buffer pH 7.4, with 0.20 mM NAD and 200,000 dpm of [^3H]cortisol and a test compound in a total volume of 1 mL. The tubes are preincubated for 10 min at 37° C. before adding 200 μg of cell lysates to start the reaction. After incubation for 1 h at 37° C. in a shaking water bath, the mixture is extracted with 2 volumes of ethyl acetate and centrifuged for 10 min at 2,000 rpm. The organic layer is collected, dried under vacuum and resuspended in methanol. The dissolved residues are quantitatively transferred to thin layer plates and developed in chloroform-methanol (90:10). Unlabeled cortisol and cortisone were used as reference markers. The TLC plates are scanned on a Bioscan radioimaging detector (Bioscan, Washington, D.C.), and the fractional conversion of cortisol to cortisone is calculated. Enzyme activity is expressed as pmoles of product formed per mg protein per hour. Carbenoxolone and glycyrrhetinic acid are used as standards.

cellular 11β-HSD1 = target: T3, cellular 11β-HSD1 (Rattus norvegicus, UniProt P16232); test: inhibition of cellular 11β-HSD1 activity in primary rat hepatocytes; assay type: cell-based; settings: 2 h incubation
T3 construct: Enzyme activity is measured in the medium of primary cultures of rat hepatocytes 48 h after plating the cells; endogenous in cells; host or cells: primary hepatocytes of male Sprague-Dawley rats
Protocol: The inhibition of cellular 11β-HSD1 activity in primary rat hepatocytes is determined as follows:
Male Sprague-Dawley rats weighing 180-200 g are anesthetized with sodium pentobarbital (65 mg/kg). The liver is perfused in situ with calcium-free Earl's Balanced Salt Solution (EBSS) followed by EBSS containing 100-150 U/mL of collagenase, 1.8 mM CaCl2 and 10 mM HEPES, pH 7.4. The perfused liver is removed and aseptically placed in warm William's Medium E containing 10% BCS. After decapsulation, the organ is transferred to fresh medium and gently shaken to facilitate tissue dissociation and cell release. Hepatocytes are separated from nonparenchymal and dead cells by repeated low speed centrifugation. Cell viability is determined by trypan blue exclusion.
Hepatocytes are plated on collagen coated dishes at a density of 1×10^5 cells/cm^2 in William's medium E containing 10% BCS, 100 U/mL penicillin, 100 μg/mL streptomycin, 0.25 μg/mL amphotericin B, 2 mM L-glutamine, 10 mM HEPES, 100 nM insulin and 1 nM dexamethasone. After 1 h the medium is changed to serum-free William's medium E supplemented as described above. Thereafter, the medium is replaced every 24 h. The cultures are maintained in a humidified atmosphere of 5% CO2 at 37° C.
Enzyme activity is measured in the medium of primary cultures of rat hepatocytes 48 h after plating the cells. The medium is aspirated and replaced with serum-free William's medium E containing 2 nM [^3H]11-dehydrocorticosterone and a test compound and is incubated for 2 h. An aliquot of culture medium is removed at the end of the incubation and the mixture is extracted with 2 volumes of ethyl acetate, dried under vacuum and resuspended in methanol. The dissolved residues are quantitatively transferred to thin layer plates and developed in chloroform-methanol (90:10). The TLC plates are scanned on a Bioscan imaging detector and the fractional conversion of 11-dehydrocorticosterone to corticosterone is calculated. The cell layer is rinsed with cold phosphate-buffered saline and dissolved in 0.1 N NaOH/5% SDS for the determination of cellular protein (BCA, Pierce, Rockford, Ill.). Enzyme activity is expressed as pmoles of product formed per mg protein per hour.

[2] = tested on: corticosterone production in adrenalectomized (ADX) mice; test: inhibition of corticosterone production in adrenalectomized (ADX) mice; assay type: in vivo; settings: Mus musculus, po; ADX CD1 mice, orally 25 mg/kg each at 2 and 4 h before sacrifice; liver corticosterone
Protocol: Inhibition of corticosterone production in adrenalectomized (ADX) mice is determined as follows:
Bilateral adrenalectomy is performed in male mice of the CD1 strain (6 to 8 weeks of age, 25-30 g body weight) through a lumbar laparotomy. After 10 days the animals are fasted for 24 h. Compounds are administered orally at 25 mg/kg each at 2 and 4 h before sacrifice. A second group of animals receives carbenoxolone at the same dose, and a third group receives the vehicle (cornstarch). Homogenized liver samples are used to measure corticosterone concentration which is determined by radioimmunoassay and is expressed as pg of corticosterone per mg of liver protein.

T3 sequence (P16232 whole entry): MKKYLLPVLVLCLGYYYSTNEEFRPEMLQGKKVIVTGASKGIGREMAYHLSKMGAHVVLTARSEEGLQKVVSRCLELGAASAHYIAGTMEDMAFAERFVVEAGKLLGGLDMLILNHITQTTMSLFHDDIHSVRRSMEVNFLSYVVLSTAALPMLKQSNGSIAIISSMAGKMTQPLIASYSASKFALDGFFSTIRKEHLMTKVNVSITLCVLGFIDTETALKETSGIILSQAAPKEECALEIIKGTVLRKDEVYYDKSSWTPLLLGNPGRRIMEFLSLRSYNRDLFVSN
T1 sequence (P28845 whole entry): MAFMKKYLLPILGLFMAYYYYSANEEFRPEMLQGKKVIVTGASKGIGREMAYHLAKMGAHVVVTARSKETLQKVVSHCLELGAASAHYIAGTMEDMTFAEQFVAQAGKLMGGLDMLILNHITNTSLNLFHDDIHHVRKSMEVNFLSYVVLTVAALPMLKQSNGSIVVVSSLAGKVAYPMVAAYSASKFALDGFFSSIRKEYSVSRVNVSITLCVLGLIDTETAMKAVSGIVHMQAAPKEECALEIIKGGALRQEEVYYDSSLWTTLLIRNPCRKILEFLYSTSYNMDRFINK

IC50 [1]: 42 nM
inhibition at 10 µM (human 11β-HSD2): 44%
inhibition at 1 µM (cellular 11β-HSD1): 53%
SMILES: COc1cccc(NC(=O)Nc2ccc(C(=O)N3CCC[C@H]4CCCC[C@H]43)c(OC)c2)c1 [Example 13-4]
change in vivo at 25 mg/kg [2]: -70%
